pIC50: −log10 of the molar value. ≈ marks a conversion by molar mass, not a printed value. Calls of active or inactive are those of the source. The rule behind the calls is not given here. Numbered stars: 1 amine (or outer) side, 2 acyl side, 3 side chain; on linkers, the order of the positions; unused ones are H or OH. Square brackets hold non-standard residues; d marks the D form. Peptide text beside a SMILES is read from it. Pro(N-(CH2)3Gua,cis-4-NH-) = N=C(N)NCCCN1C[C@@H](N[*:1])C[C@H]1C(=O)[*:2]; βAla = NCCC(=O)O
Experiments:
Escherichia coli [1] = experiment: Antibacterial activity against Escherichia coli NCIM 2688 after 8 hrs by serial dilution method; assay type: functional, organism-based; details: NCIM 2688, 8 h
Pseudomonas aeruginosa = experiment: Antibacterial activity against Pseudomonas aeruginosa NCIM 2036 after 8 hrs by serial dilution method; assay type: functional, organism-based; details: NCIM 2036, 8 h
Enterobacter sp. = experiment: Antibacterial activity against Enterobacter sp. NCIM 5392 after 8 hrs by serial dilution method; assay type: functional, organism-based; details: NCIM 5392, 8 h
Bacillus subtilis = experiment: Antibacterial activity against Bacillus subtilis NCIM 2079 after 12 hrs by serial dilution method; assay type: functional, organism-based; details: NCIM 2079, 12 h
Staphylococcus aureus [2] = experiment: Antibacterial activity against Staphylococcus aureus NCIM 2010 after 12 hrs by serial dilution method; assay type: functional, organism-based; details: NCIM 2010, 12 h
[3] = tested on: Staphylococcus epidermidis; experiment: Antibacterial activity against Staphylococcus epidermidis NCIM 5270 after 12 hrs by serial dilution method; assay type: functional, organism-based; details: NCIM 5270, 12 h
[4] = tested on: Mycobacterium tuberculosis; experiment: Antitubercular activity against dormant stage of Mycobacterium tuberculosis H37Ra ATCC 25177 after 12 days by XRMA; assay type: functional, organism-based; details: H37Ra ATCC 25177, 288 h
[5] = tested on: Mycobacterium tuberculosis; experiment: Antitubercular activity against active stage of Mycobacterium tuberculosis H37Ra ATCC 25177 after 8 days by XRMA; assay type: functional, organism-based; details: H37Ra ATCC 25177, 192 h
Staphylococcus aureus [6] = experiment: Antibacterial activity against Staphylococcus aureus NCIM 2010 assessed as decrease in bacterial viability at 10 ug/ml after 4 hrs by SYTO9/propidium iodide staining-based fluorescence microscopic method; assay type: functional, organism-based
Staphylococcus aureus [7] = experiment: Disruption of cell wall in Staphylococcus aureus NCIM 2010 at MIC after 60 mins by transmission electron microscopic method; assay type: functional, organism-based
Escherichia coli [8] = experiment: Disruption of cell wall in Escherichia coli NCIM 2688 at MIC after 60 mins by transmission electron microscopic method; assay type: functional, organism-based
[9] = tested on: Mycobacterium tuberculosis; experiment: Disruption of cell wall in dormant stage of Mycobacterium tuberculosis H37Ra ATCC 25177 at MIC after 60 mins by transmission electron microscopic method; assay type: functional, organism-based
[10] = tested on: Mycobacterium tuberculosis; experiment: Disruption of cell wall in active stage of Mycobacterium tuberculosis H37Ra ATCC 25177 at MIC after 60 mins by transmission electron microscopic method; assay type: functional, organism-based
[11] = Cytotoxicity against human HeLa cells assessed as cell viability at 1 to 10 uM after 24 hrs by MTT assay relative to control; assay type: cell-based; details: read-out: Activity
Erythrocyte = experiment: Hemolytic activity in human RBC at 1 to 40 uM after 1 hr; assay type: ADME, cell-based
[12] = Drug degradation assessed as bovine pancreas chymotrypsin-mediated compound hydrolysis by measuring remaining compound levels at 10 mM measured at 0.5 hrs by RP-HPLC method; assay type: ADME, Bos taurus; details: cattle, read-out: Stability
[13] = Drug degradation assessed as bovine pancreas chymotrypsin-mediated compound hydrolysis by measuring remaining compound levels at 10 mM measured at 1 hr by RP-HPLC method; assay type: ADME, Bos taurus; details: cattle, read-out: Stability
[14] = Drug degradation assessed as bovine pancreas chymotrypsin-mediated compound hydrolysis by measuring remaining compound levels at 10 mM measured at 2 hrs by RP-HPLC method; assay type: ADME, Bos taurus; details: cattle, read-out: Stability
[15] = Drug degradation assessed as bovine pancreas chymotrypsin-mediated compound hydrolysis by measuring remaining compound levels at 10 mM measured at 4 hrs by RP-HPLC method; assay type: ADME, Bos taurus; details: cattle, read-out: Stability
[16] = Drug degradation assessed as bovine pancreas chymotrypsin-mediated compound hydrolysis by measuring remaining compound levels at 10 mM measured at 8 hrs by RP-HPLC method; assay type: ADME, Bos taurus; details: cattle, read-out: Stability
[17] = Drug degradation assessed as bovine pancreas chymotrypsin-mediated compound hydrolysis by measuring remaining compound levels at 10 mM measured at 12 hrs by RP-HPLC method; assay type: ADME, Bos taurus; details: cattle, read-out: Stability
[18] = Drug degradation assessed as bovine pancreas chymotrypsin-mediated compound hydrolysis by measuring remaining compound levels at 10 mM measured at 18 hrs by RP-HPLC method; assay type: ADME, Bos taurus; details: cattle, read-out: Stability
[19] = Drug degradation assessed as bovine pancreas chymotrypsin-mediated compound hydrolysis by measuring remaining compound levels at 10 mM measured at 24 hrs by RP-HPLC method; assay type: ADME, Bos taurus; details: cattle, read-out: Stability
[20] = Drug degradation assessed as bovine pancreas chymotrypsin-mediated compound hydrolysis by measuring compound half life at 10 mM by RP-HPLC method; assay type: ADME, Bos taurus; details: cattle
[21] = Drug degradation assessed as pepsin (unknown origin)-mediated compound hydrolysis by measuring remaining compound levels at 0.5 hrs by RP-HPLC method; assay type: ADME; details: human, read-out: Stability
[22] = Drug degradation assessed as pepsin (unknown origin)-mediated compound hydrolysis by measuring remaining compound levels at 1 hr by RP-HPLC method; assay type: ADME; details: human, read-out: Stability
[23] = Drug degradation assessed as pepsin (unknown origin)-mediated compound hydrolysis by measuring remaining compound levels at 2 hrs by RP-HPLC method; assay type: ADME; details: human, read-out: Stability
[24] = Drug degradation assessed as pepsin (unknown origin)-mediated compound hydrolysis by measuring remaining compound levels at 4 hrs by RP-HPLC method; assay type: ADME; details: human, read-out: Stability
[25] = Drug degradation assessed as pepsin (unknown origin)-mediated compound hydrolysis by measuring remaining compound levels at 8 hrs by RP-HPLC method; assay type: ADME; details: human, read-out: Stability
[26] = Drug degradation assessed as pepsin (unknown origin)-mediated compound hydrolysis by measuring remaining compound levels at 12 hrs by RP-HPLC method; assay type: ADME; details: human, read-out: Stability
[27] = Drug degradation assessed as pepsin (unknown origin)-mediated compound hydrolysis by measuring remaining compound levels at 18 hrs by RP-HPLC method; assay type: ADME; details: human, read-out: Stability
[28] = Drug degradation assessed as pepsin (unknown origin)-mediated compound hydrolysis by measuring remaining compound levels at 24 hrs by RP-HPLC method; assay type: ADME; details: human, read-out: Stability

Compound CC(=O)N[C@@H](Cc1ccccc1)C(=O)NCC(=O)N[C@H]1C[C@@H](C(=O)N[C@@H](CCCCN)C(=O)N[C@@H](CCCCN)C(=O)N[C@@H](CCCNC(=N)N)C(=O)N[C@H]2C[C@@H](C(=O)N[C@@H](CCC(N)=O)C(=O)N[C@H]3C[C@@H](C(=O)N[C@@H](CCCNC(=N)N)C(=O)N[C@H]4C[C@@H](C(=O)NCCC(N)=O)N(CCCNC(=N)N)C4)N(CCCNC(=N)N)C3)N(CCCNC(=N)N)C2)N(CCCNC(=N)N)C1 has a pIC50 (Escherichia coli [1]) of 8.28, an MIC (Escherichia coli [1]) of 1.12 µM (≈ 2.1 µg/mL) and a pIC50 (Pseudomonas aeruginosa) of 8.38. The MIC (Pseudomonas aeruginosa) was 0.61 µM (≈ 1.14 µg/mL), the pIC50 (Enterobacter sp.) was 8.38 and the MIC (Enterobacter sp.) was 1.35 µM (≈ 2.53 µg/mL). The pIC50 (Bacillus subtilis) was 8.43, the MIC (Bacillus subtilis) was 0.71 µM (≈ 1.33 µg/mL) and the pIC50 (Staphylococcus aureus [2]) was 8.19. For the same compound, the MIC (Staphylococcus aureus [2]) was 1.26 µM (≈ 2.36 µg/mL), the pIC50 [3] was 8.38 and the MIC [3] was 1.12 µM (≈ 2.1 µg/mL). It also gave a pIC50 [4] of 5.43, an MIC [4] of 36.3 µM (≈ 68.1 µg/mL) and a pIC50 [5] of 5.21. The MIC [5] was 43.9 µM (≈ 82.4 µg/mL), the Activity (Staphylococcus aureus [6]) was “Active” and the Activity (Staphylococcus aureus [7]) was “Active”. The Activity (Escherichia coli [8]) was “Active”, the Activity [9] was “Active” and the Activity [10] was “Active”. For the same compound, the viability at 24 h, up to 10 µM [11] was at least 80%, the Activity (Erythrocyte) was “Non-Toxic” and the remaining at 0.5 h, 10000 µM [12] was 100%. It also gave a remaining at 1 h, 10000 µM [13] of 100%, a remaining at 2 h, 10000 µM [14] of 100% and a remaining at 4 h, 10000 µM [15] of 100%. It also gave a remaining at 8 h, 10000 µM [16] of 100%, a remaining at 12 h, 10000 µM [17] of 100% and a remaining at 18 h, 10000 µM [18] of 100%. The remaining at 24 h, 10000 µM [19] was 100%, the half-life at 10000 µM [20] was 16 h and the remaining at 0.5 h [21] was 100%. The remaining at 1 h [22] was 100%, the remaining at 2 h [23] was 100% and the remaining at 4 h [24] was 100%. The remaining at 8 h [25] was 100%, the remaining at 12 h [26] was 100% and the remaining at 18 h [27] was 100%. It also gave a remaining at 24 h [28] of 100%.

With CC(=O)N[C@@H](Cc1ccccc1)C(=O)NCC(=O)N[C@@H](CCCNC(=N)N)C(=O)N[C@@H](CCCCN)C(=O)N[C@@H](CCCCN)C(=O)N[C@H]1C[C@@H](C(=O)N[C@@H](CCCNC(=N)N)C(=O)N[C@@H](CCC(N)=O)C(=O)N[C@@H](CCCNC(=N)N)C(=O)N[C@@H](CCCNC(=N)N)C(=O)N[C@@H](CCCNC(=N)N)C(=O)NCCC(N)=O)N(CCCNC(=N)N)C1 (Ac-FGRKK[Pro(N-(CH2)3Gua,cis-4-NH-)]RQRRR[βAla]-NH2) the pIC50 (Escherichia coli [1]) was 7.74, the MIC (Escherichia coli [1]) was 7.25 µM (≈ 12.4 µg/mL) and the pIC50 (Pseudomonas aeruginosa) was 8.30. The MIC (Pseudomonas aeruginosa) was 2.67 µM (≈ 4.57 µg/mL), the pIC50 (Enterobacter sp.) was 7.85 and the MIC (Enterobacter sp.) was 4.7 µM (≈ 8.04 µg/mL). It also gave a pIC50 (Bacillus subtilis) of 7.35, an MIC (Bacillus subtilis) of 14.1 µM (≈ 24.1 µg/mL) and a pIC50 (Staphylococcus aureus [2]) of 7.64. The MIC (Staphylococcus aureus [2]) was 5.25 µM (≈ 8.98 µg/mL), the pIC50 [3] was 7.85 and the MIC [3] was 8.95 µM (≈ 15.3 µg/mL). For the same compound, the pIC50 [4] was 5.89, the MIC [4] was 13.8 µM (≈ 23.6 µg/mL) and the pIC50 [5] was 5.52. It also gave an MIC [5] of 20.1 µM (≈ 34.4 µg/mL) and a viability at 24 h, up to 10 µM [11] of at least 80%.

Source: ChEMBL document CHEMBL4152250, “Antibacterial and anti-TB tat-peptidomimetics with improved efficacy and half-life” (Eur J Med Chem, 2018)
